How the values were obtained:
Format in all cases: cell-based, human
A549 lung cancer cells = experiment: Alamar Blue proliferation assay, A549
Description: (§1) The inventors assessed the therapeutic effect of hsa-miR-126 for lung cancer by using 11 individual lung cancer cell lines. To measure cellular proliferation of lung cancer cells, the following non-small cell lung cancer (NSCLC) cells were used: cells derived from lung adenocarcinoma (A549, H1299, H522, H838, Calu-3, HCC827, HCC2935), cells derived from lung squamous cell carcinoma (H520, H226), cells derived from lung bronchioalveolar carcinoma (H1650), and cells derived from lung large cell carcinoma (H460). Synthetic hsa-miR-126 (Pre-miR™-hsa-miR-126, Ambion cat. no. AM17100) or negative control (NC) miRNA (Pre-miR™ microRNA Precursor Molecule-Negative Control #2; Ambion cat. no. AM17111) was delivered via lipid-based transfection into A549, H1299, H522, H838, Calu-3, HCC827, HCC2935, H520, H1650, and H460 cells, and via electroporation into H226 cells.
(§2) Lipid-based reverse transfections were carried out in triplicate according to a published protocol (Ovcharenko et al., 2005) and the following parameters: Cells (5,000-12,000 per 96 well), 0.1-0.2 μl Lipofectamine™ 2000 (cat. no. 11668-019, Invitrogen Corp., Carlsbad, Calif., USA) in 20 μl OptiMEM (Invitrogen), 30 nM final concentration of miRNA in 100 μl. Electroporation of H226 cells was carried out using the BioRad Gene Pulser Xcell™ instrument (BioRad Laboratories Inc., Hercules, Calif., USA) with the following settings: 5×10^6 cells with 5 μg miRNA in 200 μl OptiMEM (1.6 μM miRNA), square wave pulse at 250 V for 5 ms. Electroporated H226 cells were seeded at 7,000 cells per 96-well in a total volume of 100 μl. All cells except for Calu-3 cells were harvested 72 hours post transfection or electroporation for assessment of cellular proliferation. Calu-3 cells were harvested 10 days post transfection. Proliferation assays were performed using Alamar Blue (Invitrogen) following the manufacturer's instructions. As a control for inhibition of cellular proliferation, siRNA against the motor protein kinesin 11, also known as Eg5, was used. […]

H520 lung cancer cells = experiment: Alamar Blue proliferation assay, H520
Description: as §1, §2

H226 lung cancer cells = experiment: Alamar Blue proliferation assay, H226
Description: as §1
as §2, with “Electroporation of H226 cells was carried out using the BioRad Gene Pulser Xcell™ instrument (BioRad Laboratories Inc., Hercules, Calif., USA) with the following settings: 5×10^6 cells with 5 μg miRNA in 200 μl OptiMEM (1.6 μM miRNA), square wave pulse at 250 V for 5 ms.” left out, “used. Eg5 is essential for cellular survival of most eukaryotic cells and a lack thereof leads to reduced cell proliferation and cell death (Weil et al., 2002). siEg5 was used in lipid-based transfection following the same experimental parameters that apply to miRNA.” for “used.”

Compound | % proliferation (A549 lung cancer cells; A549, 50 μM, relative to NC miRNA (100%)) [%] | % proliferation (A549 lung cancer cells; A549, relative to NC miRNA (100%)) [%] | % proliferation (H520 lung cancer cells; H520, 50 μM, relative to NC miRNA (100%)) [%] | % proliferation (H520 lung cancer cells; H520, relative to NC miRNA (100%)) [%] | % proliferation (H226 lung cancer cells; H226, 50 μM, relative to NC miRNA (100%)) [%] | % proliferation (H226 lung cancer cells; H226, relative to NC miRNA (100%)) [%] | % proliferation (A549 lung cancer cells; A549, 30 nM, 72 h, relative to NC miRNA (100%)) [%] | % proliferation (H520 lung cancer cells; H520, 30 nM, 72 h, relative to NC miRNA (100%)) [%] | % proliferation (H226 lung cancer cells; H226, 30 nM, electroporation, 72 h, relative to NC miRNA (100%)) [%]
COc1cc([C@@H]2c3cc4c(cc3[C@@H](O[C@@H]3O[C@@H]5CO[C@@H](C)O[C@H]5[C@H](O)[C@H]3O)[C@H]3COC(=O)[C@H]23)OCO4)cc(OC)c1O [etoposide] | 42.18 | 49.13 | 48.53 | 66.80 | 9.33 | 28.17 |  |  | 
hsa-miR-126 (UCGUACCGUGAGUAAUAAUGC; synthetic pre-miR form, further chemistry not given here) [Synthetic hsa-miR-126 (Pre-miR™-hsa-miR-126, Ambion cat. no. AM17100)] |  |  |  |  |  |  | 84.30 | 80.99 | 92.09
